Test results taken from US5846940A, “Corneal therapeutic agent” (Okamoto; Sinseiro, priority 1994, dated 1998).

System: corneas of colored rabbit after excimer laser abrasion
Experiment: accelerating activity for corneal wound healing after excimer laser treatment (histological observation of corneal slices)
Format: in vivo
Details: eye drop 100 μg/ml; for epithelium regeneration in the excimer-laser irradiated portion / inflammatory changes / thickness of the regenerated epithelium / vacuolation and fibroblast growth in the tunica propria / under the epithelium: single droplet twice a day for 5 to 7 days, optical microscope
Protocol: The following tests were performed with respect to the accelerating activity for the corneal wound healing after excimer laser treatment.
HP 1 and HP 2 were diluted with 1.2 ml of an oxyglutathion eye-perfusion/washing solution (trade name: BSS plus, manufactured by Santen Seiyaku) to obtain a diluted solution in a final concentration of 0.1 mg/ml. 1000 μg/ml of EGF was diluted with 1 ml of the oxyglutathion eye-perfusion/washing solution to obtain a diluted solution in a final concentration of 0.1 mg/ml. FN was diluted with 10 ml of the oxyglutathion eye-perfusion/washing solution to obtain a diluted solution in a final concentration of 0.1 mg/ml.
A colored rabbit was used as a test animal. The following surgical operation was applied to the rabbit.
An excimer laser was radiated to the corneas of both eyes of the rabbit under the condition of 180 mj/10 nsec (10 Hz) per pulse. By this radiation, the surface of central corneal parenchyma was cut off by abrasion in the form of a meniscus having a diameter of 4.5 mm (9.9 diopter) and a maximum center-depth of 70 μm. The excimer laser was radiated by using Omunimed (trade name) manufactured by Summit (U.S.A.).
Each of the aforementioned samples was administered to both eyes twice a day. A single droplet (about 50 μl) was administrated once in the morning and the afternoon for 5 to 7 days.
As Comparative examples, eye drops were prepared by dissolving the aforementioned samples in the oxyglutathion eye perfusion/washing solution in accordance with Table 2 and administered to both eyes of the rabbit.
After completion of droplet administration, right and left eyes were taken out from the rabbit and fixed with a glutathion aldehyde/formalin fixing solution. After the fixation, each cornea including a laser irradiated portion and a non-irradiated portion were excised out. Then, paraffin blocks were prepared in accordance with a customary method and thin-film slices of 5 μm thick were prepared by means of a microtome. The obtained corneal slices were stained with H.E. (hematoxylin-eosin) and then subjected to special staining such as PAS or trichrome.

Row | Compound | epithelium regeneration in the excimer-laser irradiated portion | inflammatory changes | thickness of the regenerated epithelium | vacuolation and fibroblast growth in the tunica propria / under the epithelium | overall corneal wound healing accelerating / corneal therapeutic effect (conclusion) (after excimer laser treatment)
1 | EGF: epithelial cell growth factor, manufactured by Bio Medical Technologies | observed in the entire irradiated portion | inflammatory changes were observed | nearly uniform | vacuolation and fibroblast growth were observed | –
2 | CC[C@H](C)[C@H](NC(=O)[C@H](Cc1ccc(O)cc1)NC(=O)[C@@H]1CCCN1C(=O)[C@H](CCCNC(=N)N)NC(=O)[C@H](CCCNC(=N)N)NC(C)=O)C(=O)N[C@@H](CC(C)C)C(=O)O [HP2, N-acetyl-Arg-Arg-Pro-Tyr-Ile-Leu-OH] | observed in the entire irradiated portion | not observed | nonuniform | Vacuolation and fibroblast growth were observed | confirmed to have an corneal wound healing accelerating effect
3 | fibronectin [FN] | observed in the entire irradiated portion | inflammatory changes were observed | nonuniform | relatively significant | –
